Data taken from patent US9957271B2, “Substituted bicyclic aza-heterocycles and analogues as sirtuin modulators” (GlaxoSmithKline, LLC, priority 2012, dated 2018).

Molecular target: T1, SIRT1 (Homo sapiens, UniProt Q96EB6)
T1 sequence (Q96EB6 1-747): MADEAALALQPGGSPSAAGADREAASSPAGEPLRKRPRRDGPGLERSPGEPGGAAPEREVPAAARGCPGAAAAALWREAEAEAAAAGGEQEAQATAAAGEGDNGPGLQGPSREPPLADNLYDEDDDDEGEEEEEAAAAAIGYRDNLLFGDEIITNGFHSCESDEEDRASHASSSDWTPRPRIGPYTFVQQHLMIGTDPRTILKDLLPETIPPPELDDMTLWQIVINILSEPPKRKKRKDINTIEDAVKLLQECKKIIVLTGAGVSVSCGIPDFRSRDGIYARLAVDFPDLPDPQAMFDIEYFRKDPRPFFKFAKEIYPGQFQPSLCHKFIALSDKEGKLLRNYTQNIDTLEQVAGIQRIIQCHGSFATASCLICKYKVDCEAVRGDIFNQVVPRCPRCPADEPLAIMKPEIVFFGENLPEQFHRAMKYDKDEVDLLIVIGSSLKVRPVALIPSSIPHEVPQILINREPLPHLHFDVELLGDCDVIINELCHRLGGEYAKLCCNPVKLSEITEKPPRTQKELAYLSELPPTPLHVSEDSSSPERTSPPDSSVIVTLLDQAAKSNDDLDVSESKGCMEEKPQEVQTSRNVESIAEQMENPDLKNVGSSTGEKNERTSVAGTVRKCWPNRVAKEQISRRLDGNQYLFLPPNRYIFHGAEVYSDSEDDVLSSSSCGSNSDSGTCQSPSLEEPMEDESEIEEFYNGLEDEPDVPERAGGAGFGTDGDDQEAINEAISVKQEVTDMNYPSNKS
Experiment: TAMRA based mass spectrometry assay of SIRT1 activity
Type: biochemical
Conditions: TAMRA assay; for TAMRA EC1.5 (μM): concentration giving 150% activation of SIRT1; for Emax: percent maximum fold activation, read-out: TAMRA % Fold Act
How it was run: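 Deacetylation of a biotinylated, TAMRA-tagged p53-based peptide (0.5 μM) by 10 nM His-tagged SIRT1 with 120 μM βNAD+, 25 °C for 25 min, pH 8 Tris-acetate buffer, across a compound concentration range. Quenched by formic acid and read by mass spec as product peptide or OAADPR; activity relative to DMSO reactions, nicotinamide defining maximal inhibition.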

Structure (SMILES) | TAMRA EC1.5 (μM) | Emax [%]
Cc1nc(C(=O)Nc2cnc3ccc(-c4ccccc4OC(F)(F)F)nn23)c(C)s1 [Compound 318] | A (EC1.5<1 μM) | ≥ 350
O=C(Nc1cnc2ccc(-c3ccccc3OC(F)(F)F)nn12)c1nccs1 [Compound 319] | A (EC1.5<1 μM) | ≥ 350
O=C(Nc1cnc2ccc(-c3ccccc3OC(F)(F)F)nn12)c1cccc(N2CCC2)n1 [Compound 322] | A (EC1.5<1 μM) | ≥ 350
O=C(Nc1ccccn1)c1c(O)nc2ccc(-c3ccccc3C(F)(F)F)nn12 [Compound 324] | B (EC1.5 1-25 μM) | < 350
O=C(Nc1ccnc(OCC(F)(F)F)n1)c1cnc2ccc(-c3ccccc3C(F)(F)F)nn12 [Compound 325] | B (EC1.5 1-25 μM) | < 350
N#Cc1ccccc1-c1ccc2ncc(NC(=O)c3ccccn3)n2n1 [Compound 328] | A (EC1.5<1 μM) | ≥ 350
N#Cc1ccccc1-c1ccc2ncc(NC(=O)c3ccncn3)n2n1 [Compound 330] | B (EC1.5 1-25 μM) | < 350
N#Cc1ccccc1-c1ccc2ncc(NC(=O)c3ncccn3)n2n1 [Compound 331] | B (EC1.5 1-25 μM) | ≥ 350
Cc1nc(C(=O)Nc2cnc3ccc(-c4ccccc4C#N)nn23)cs1 [Compound 333] | B (EC1.5 1-25 μM) | ≥ 350
Cc1nc(C(=O)Nc2cnc3ccc(-c4ccccc4C#N)nn23)c(C)s1 [Compound 334] | A (EC1.5<1 μM) | ≥ 350
Cc1cnc(C(=O)Nc2cnc3ccc(-c4ccccc4C#N)nn23)s1 [Compound 336] | B (EC1.5 1-25 μM) | ≥ 350
N#Cc1ccccc1-c1ccc2ncc(NC(=O)c3cccc(N4CCOCC4)n3)n2n1 [Compound 337] | A (EC1.5<1 μM) | ≥ 350
Cc1cc(NC(=O)c2c(O)nc3ccc(-c4ccccc4C(F)(F)F)nn23)cc(C)n1 [Compound 341] | C (EC1.5>25 μM) | < 350
O=C(Nc1ncccn1)c1c(O)nc2ccc(-c3ccccc3C(F)(F)F)nn12 [Compound 342] | C (EC1.5>25 μM) | –
Cc1cccc(NC(=O)c2c(O)nc3ccc(-c4ccccc4C(F)(F)F)nn23)n1 [Compound 343] | C (EC1.5>25 μM) | < 350
O=C(Nc1cccc(OCC(O)CO)n1)c1c(O)nc2ccc(-c3ccccc3C(F)(F)F)nn12 (stereo not drawn) [Compound 344] | B (EC1.5 1-25 μM) | < 350
O=C(Nc1cncc(OCC(O)CO)n1)c1c(O)nc2ccc(-c3ccccc3C(F)(F)F)nn12 (stereo not drawn) [Compound 345] | B (EC1.5 1-25 μM) | ≥ 350
Cc1nc2ccc(-c3ccccc3Cl)nn2c1NC(=O)c1cnccn1 [Compound 347] | C (EC1.5>25 μM) | < 350
Cc1nc2ccc(-c3ccccc3Cl)nn2c1NC(=O)c1ncccn1 [Compound 349] | C (EC1.5>25 μM) | < 350

Structure (SMILES) | TAMRA EC1.5 (μM) | Emax [%]
Cc1nc2ccc(-c3ccccc3Cl)nn2c1NC(=O)c1cscn1 [Compound 350] | C (EC1.5>25 μM) | < 350
Cc1nc2ccc(-c3ccccc3Cl)nn2c1NC(=O)c1nccs1 [Compound 353] | B (EC1.5 1-25 μM) | < 350
Cc1nc2ccc(-c3ccccc3Cl)nn2c1NC(=O)c1cccc(N2CCOCC2)n1 [Compound 355] | A (EC1.5<1 μM) | ≥ 350
Cc1nc2ccc(-c3ccccc3Cl)nn2c1NC(=O)c1cccc(N2CCC2)n1 [Compound 356] | A (EC1.5<1 μM) | < 350
O=C(Nc1ccncc1F)c1cnc2ccc(-c3ccccc3OC(F)(F)F)nn12 [Compound 359] | B (EC1.5 1-25 μM) | ≥ 350
Cc1cc(NC(=O)c2cnc3c(C)c(C)c(-c4ccccc4C(F)(F)F)nn23)cc(C)n1 [Compound 361] | A (EC1.5<1 μM) | ≥ 350
O=C(Nc1cnccn1)c1cnc2ccc(-c3ccccc3OC(F)(F)F)nn12 [Compound 362] | A (EC1.5<1 μM) | ≥ 350
Cc1cc(C)nc(NC(=O)c2c(O)nc3ccc(-c4ccccc4C(F)(F)F)nn23)c1 [Compound 365] | B (EC1.5 1-25 μM) | < 350
Cc1cc(NC(=O)c2c(O)nc3ccc(-c4ccccc4C(F)(F)F)nn23)ccn1 [Compound 366] | B (EC1.5 1-25 μM) | < 350
O=C(Nc1cccc(N2CCOCC2)n1)c1cnc2ccc(-c3ccccc3OCC(O)CO)nn12 (stereo not drawn) [Compound 367, 6-(2-(2,3-dihydroxypropoxy)phenyl)-N-(6-morpholinopyridin-2-yl)imidazo[1,2-b]pyridazine-3-carboxamide] | A (EC1.5<1 μM) | ≥ 350
O=C(Nc1ccccn1)c1cnc2ccc(-c3ccccc3OCC(O)CO)nn12 (stereo not drawn) [Compound 368] | B (EC1.5 1-25 μM) | ≥ 350
Cc1cc(NC(=O)c2cnc3ccc(-c4ccccc4OCC(O)CO)nn23)ccn1 (stereo not drawn) [Compound 370] | B (EC1.5 1-25 μM) | ≥ 350
Cc1cc(C)nc(NC(=O)c2cnc3ccc(-c4ccccc4OCC(O)CO)nn23)c1 (stereo not drawn) [Compound 371] | A (EC1.5<1 μM) | ≥ 350
O=C(Nc1ccccn1)c1cnc2ccc(-c3cccc(OCC(O)CO)c3)nn12 (stereo not drawn) [Compound 373] | B (EC1.5 1-25 μM) | < 350
Cc1cc(NC(=O)c2cnc3ccc(-c4cccc(OCC(O)CO)c4)nn23)ccn1 (stereo not drawn) [Compound 374] | B (EC1.5 1-25 μM) | < 350
Cc1nc2ccc(-c3ccccc3C(F)(F)F)nn2c1NC(=O)c1cnccn1 [Compound 376] | B (EC1.5 1-25 μM) | < 350
Cc1nc2ccc(-c3ccccc3C(F)(F)F)nn2c1NC(=O)c1ncccn1 [Compound 378] | B (EC1.5 1-25 μM) | ≥ 350
Cc1nc(C(=O)Nc2c(C)nc3ccc(-c4ccccc4C(F)(F)F)nn23)c(C)s1 [Compound 379] | B (EC1.5 1-25 μM) | ≥ 350
Cc1nc2ccc(-c3ccccc3C(F)(F)F)nn2c1NC(=O)c1cccc(N2CCOCC2)n1 [Compound 382] | A (EC1.5<1 μM) | ≥ 350
